Publication PMC7794376 (Nature Communications, 2021)
Where “and” joins values, the source holds several entries; their conditions need not be identical. Equal values may be shown once. Read-outs that look alike come from different tables or passages of the source.

Columns and labels:
MtbCoaBC = MtbCoaBC (Mycobacterium tuberculosis, UniProt P9WNZ1); assay: biochemical; type: biochemical; settings: for activity at 0.015625 µM / activity at 0.03125 µM / activity at 0.0625 µM / activity at 0.25 µM / activity at 0.5 µM: relative to average DMSO CT; for Activity R1 / Activity R3: slope of absorbance at 360 vs time (s); for inhibition, IC50 MtbCoaBC 1b / remaining activity relative to control, IC50 MtbCoaBC 1b: three replicates, column head and unit not shown
human CoaB (HCoaB) = human CoaB (HCoaB) (Homo sapiens, UniProt Q9HAB8); assay: EnzChek pyrophosphate assay, HCoaB; type: biochemical; settings: for Activity: slope of absorbance at 360 nm vs time (s)
[1] = inhibitor concentration 1 (log 0)
[2] = inhibitor concentration 2 (log 0.30103)
[3] = 3.125 uM 1b, relative to average DMSO CT, replicates R1-R3
[4] = 6.25 uM 1b, relative to average DMSO CT, replicates R1-R3
[5] = 25 uM 1b, relative to average DMSO CT, replicates R1-R3

MtbCoaBC, sequence (P9WNZ1 whole entry): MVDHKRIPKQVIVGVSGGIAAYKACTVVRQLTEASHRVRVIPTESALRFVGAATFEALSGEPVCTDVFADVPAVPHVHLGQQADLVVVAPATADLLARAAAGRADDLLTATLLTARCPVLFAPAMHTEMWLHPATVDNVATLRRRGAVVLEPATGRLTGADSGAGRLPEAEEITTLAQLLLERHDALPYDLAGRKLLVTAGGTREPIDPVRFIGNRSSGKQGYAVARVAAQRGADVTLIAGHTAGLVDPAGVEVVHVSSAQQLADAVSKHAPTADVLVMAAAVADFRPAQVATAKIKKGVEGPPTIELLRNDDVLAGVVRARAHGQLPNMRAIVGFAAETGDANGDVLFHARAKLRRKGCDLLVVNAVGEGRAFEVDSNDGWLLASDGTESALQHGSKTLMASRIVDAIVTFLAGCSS
human CoaB (HCoaB), sequence (Q9HAB8 whole entry): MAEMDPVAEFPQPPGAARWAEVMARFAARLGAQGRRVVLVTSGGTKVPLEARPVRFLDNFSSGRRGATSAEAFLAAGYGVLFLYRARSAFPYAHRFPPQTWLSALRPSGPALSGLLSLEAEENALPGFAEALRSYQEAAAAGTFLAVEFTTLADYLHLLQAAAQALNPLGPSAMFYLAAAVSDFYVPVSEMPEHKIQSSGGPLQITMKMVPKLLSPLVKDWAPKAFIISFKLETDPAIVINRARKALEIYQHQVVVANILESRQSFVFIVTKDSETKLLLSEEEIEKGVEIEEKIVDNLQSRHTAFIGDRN

`O=C(c1ccc(O)cc1)c1ccc(O)c(O)c1O` [compound 1b] was tested. Which inhibition at 0.015625 µM (MtbCoaBC; 0.015625 uM 1b, replicate R1, read-out: Inhibition % R1) did it give?
The inhibition at 0.015625 µM was 2.55%.

What about the activity at 0.015625 µM (MtbCoaBC; 0.015625 uM 1b, replicate R1, read-out: Activity % R1) of the same compound?
Its activity at 0.015625 µM is 97.4%.

And the “Activity R1” value (MtbCoaBC; 0.015625 uM 1b, replicate R1)?
The value was 0.0001869.

What about the inhibition at 0.015625 µM (MtbCoaBC; 0.015625 uM 1b, replicate R2, read-out: Inhibition % R2) of the same compound?
Its inhibition at 0.015625 µM is 2.2%.

What about the activity at 0.015625 µM (MtbCoaBC; 0.015625 uM 1b, replicate R2, read-out: Activity % R2) of the same compound?
Its activity at 0.015625 µM is 97.8%.

What about the inhibition at 0.015625 µM (MtbCoaBC; 0.015625 uM 1b, replicate R3, read-out: Inhibition % R3) of the same compound?
The inhibition at 0.015625 µM was 1.31%.

And the activity at 0.015625 µM (MtbCoaBC; 0.015625 uM 1b, replicate R3, read-out: Activity % R3)?
The activity at 0.015625 µM was 98.7%.

And the “Activity R3” value (MtbCoaBC; 0.015625 uM 1b, replicate R3)?
Its value is 0.0001893.

What about the inhibition at 0.03125 µM (MtbCoaBC; 0.03125 uM 1b, replicate R1, read-out: Inhibition % R1) of the same compound?
Its inhibition at 0.03125 µM is 6.71%.

And the activity at 0.03125 µM (MtbCoaBC; 0.03125 uM 1b, replicate R1, read-out: Activity % R1)?
Its activity at 0.03125 µM is 93.3%.

And the “Activity R1” value (MtbCoaBC; 0.03125 uM 1b, replicate R1)?
Its value is 0.0001789.

What about the inhibition at 0.03125 µM (MtbCoaBC; 0.03125 uM 1b, replicate R2, read-out: Inhibition % R2) of the same compound?
Its inhibition at 0.03125 µM is 2.99%.

What about the activity at 0.03125 µM (MtbCoaBC; 0.03125 uM 1b, replicate R2, read-out: Activity % R2) of the same compound?
Its activity at 0.03125 µM is 97%.

And the inhibition at 0.03125 µM (MtbCoaBC; 0.03125 uM 1b, replicate R3, read-out: Inhibition % R3)?
Its inhibition at 0.03125 µM is 1.51%.

And the activity at 0.03125 µM (MtbCoaBC; 0.03125 uM 1b, replicate R3, read-out: Activity % R3)?
Its activity at 0.03125 µM is 98.5%.

What about the “Activity R3” value (MtbCoaBC; 0.03125 uM 1b, replicate R3) of the same compound?
The value was 0.0001889.

What about the inhibition at 0.0625 µM (MtbCoaBC; 0.0625 uM 1b, replicate R1, read-out: Inhibition % R1) of the same compound?
Its inhibition at 0.0625 µM is 9.45%.

What about the activity at 0.0625 µM (MtbCoaBC; 0.0625 uM 1b, replicate R1, read-out: Activity % R1) of the same compound?
The activity at 0.0625 µM was 90.5%.

What about the “Activity R1” value (MtbCoaBC; 0.0625 uM 1b, replicate R1) of the same compound?
The value was 0.0001736.

What about the inhibition at 0.0625 µM (MtbCoaBC; 0.0625 uM 1b, replicate R2, read-out: Inhibition % R2) of the same compound?
The inhibition at 0.0625 µM was 5.43%.

And the activity at 0.0625 µM (MtbCoaBC; 0.0625 uM 1b, replicate R2, read-out: Activity % R2)?
The activity at 0.0625 µM was 94.6%.

What about the inhibition at 0.0625 µM (MtbCoaBC; 0.0625 uM 1b, replicate R3, read-out: Inhibition % R3) of the same compound?
Its inhibition at 0.0625 µM is 12.9%.

And the activity at 0.0625 µM (MtbCoaBC; 0.0625 uM 1b, replicate R3, read-out: Activity % R3)?
The activity at 0.0625 µM was 87.1%.

What about the “Activity R3” value (MtbCoaBC; 0.0625 uM 1b, replicate R3) of the same compound?
Its value is 0.0001671.

What about the inhibition at 0.25 µM (MtbCoaBC; 0.25 uM 1b, replicate R1, read-out: Inhibition % R1) of the same compound?
Its inhibition at 0.25 µM is 34.5%.

What about the activity at 0.25 µM (MtbCoaBC; 0.25 uM 1b, replicate R1, read-out: Activity % R1) of the same compound?
The activity at 0.25 µM was 65.5%.

What about the “Activity R1” value (MtbCoaBC; 0.25 uM 1b, replicate R1) of the same compound?
Its value is 0.0001256.

What about the inhibition at 0.25 µM (MtbCoaBC; 0.25 uM 1b, replicate R2, read-out: Inhibition % R2) of the same compound?
Its inhibition at 0.25 µM is 38.6%.

What about the activity at 0.25 µM (MtbCoaBC; 0.25 uM 1b, replicate R2, read-out: Activity % R2) of the same compound?
Its activity at 0.25 µM is 61.4%.

And the inhibition at 0.25 µM (MtbCoaBC; 0.25 uM 1b, replicate R3, read-out: Inhibition % R3)?
Its inhibition at 0.25 µM is 42.2%.

And the activity at 0.25 µM (MtbCoaBC; 0.25 uM 1b, replicate R3, read-out: Activity % R3)?
Its activity at 0.25 µM is 57.8%.

And the “Activity R3” value (MtbCoaBC; 0.25 uM 1b, replicate R3)?
Its value is 0.0001108.

What about the inhibition at 0.5 µM (MtbCoaBC; 0.5 uM 1b, replicate R1, read-out: Inhibition % R1) of the same compound?
Its inhibition at 0.5 µM is 89.6%.

And the activity at 0.5 µM (MtbCoaBC; 0.5 uM 1b, replicate R1, read-out: Activity % R1)?
Its activity at 0.5 µM is 10.4%.

What about the “Activity R1” value (MtbCoaBC; 0.5 uM 1b, replicate R1) of the same compound?
Its value is 0.000019995.

And the inhibition at 0.5 µM (MtbCoaBC; 0.5 uM 1b, replicate R2, read-out: Inhibition % R2)?
The inhibition at 0.5 µM was 80.6%.

What about the activity at 0.5 µM (MtbCoaBC; 0.5 uM 1b, replicate R2, read-out: Activity % R2) of the same compound?
The activity at 0.5 µM was 19.4%.

What about the inhibition at 0.5 µM (MtbCoaBC; 0.5 uM 1b, replicate R3, read-out: Inhibition % R3) of the same compound?
The inhibition at 0.5 µM was 86.3%.

What about the activity at 0.5 µM (MtbCoaBC; 0.5 uM 1b, replicate R3, read-out: Activity % R3) of the same compound?
The activity at 0.5 µM was 13.7%.

What about the “Activity R3” value (MtbCoaBC; 0.5 uM 1b, replicate R3) of the same compound?
Its value is 0.000026339.

And the “inhibition, IC50 MtbCoaBC 1b” value (MtbCoaBC; [1])?
Its value is 96.33 and 92.35 and 100.00.

What about the “remaining activity relative to control, IC50 MtbCoaBC 1b” value (MtbCoaBC; [1]) of the same compound?
The value was -0.335 and 3.671 and 7.649.

What about the “inhibition, IC50 MtbCoaBC 1b” value (MtbCoaBC; [2]) of the same compound?
The value was 100.00.

What about the “remaining activity relative to control, IC50 MtbCoaBC 1b” value (MtbCoaBC; [2]) of the same compound?
The value was -0.361 and -1.371 and -2.001.

And the IC50 (MtbCoaBC; read-out: IC50 EnzChek MtbCoaBC)?
Its IC50 is 0.28 ± 0.05 µM.

What about the IC50 (human CoaB (HCoaB); 1 µM enzyme, average of three independent experiments ± SD) of the same compound?
Its IC50 is 122 ± 22 µM.

And the Activity % (human CoaB (HCoaB); [3])?
The Activity % was 96.65% and 97.82%.

What about the activity at 3.125 µM (human CoaB (HCoaB); [3]) of the same compound?
Its activity at 3.125 µM is 97.6%.

What about the Inhibition % (human CoaB (HCoaB); 3.125 uM 1b, replicates R1-R3) of the same compound?
The Inhibition % was 2.18% and 2.43%.

And the inhibition at 3.125 µM (human CoaB (HCoaB); 3.125 uM 1b, replicates R1-R3)?
Its inhibition at 3.125 µM is 3.35%.

And the Activity (human CoaB (HCoaB); 3.125 uM 1b, replicates R1-R3)?
Its Activity is 0.0001351 and 0.0001338 and 0.0001354.

What about the Activity % (human CoaB (HCoaB); [4]) of the same compound?
Its Activity % is 95.26% and 96.32%.

What about the activity at 6.25 µM (human CoaB (HCoaB); [4]) of the same compound?
Its activity at 6.25 µM is 97.7%.

And the Inhibition % (human CoaB (HCoaB); 6.25 uM 1b, replicates R1-R3)?
Its Inhibition % is 4.74% and 3.68% and 2.34%.

And the Activity (human CoaB (HCoaB); 6.25 uM 1b, replicates R1-R3)?
Its Activity is 0.0001352 and 0.0001319 and 0.0001333.

What about the Activity % (human CoaB (HCoaB); [5]) of the same compound?
Its Activity % is 82.72% and 82.77%.

What about the activity at 25 µM (human CoaB (HCoaB); [5]) of the same compound?
Its activity at 25 µM is 81.5%.

What about the Inhibition % (human CoaB (HCoaB); 25 uM 1b, replicates R1-R3) of the same compound?
The Inhibition % was 17.23% and 18.55%.
